Data on 29 compounds can be found in patent US20070232601A1, “Vla-4 Inhibitor” (priority 2004, published 2007).

T1 sequence (P13612 34-1032): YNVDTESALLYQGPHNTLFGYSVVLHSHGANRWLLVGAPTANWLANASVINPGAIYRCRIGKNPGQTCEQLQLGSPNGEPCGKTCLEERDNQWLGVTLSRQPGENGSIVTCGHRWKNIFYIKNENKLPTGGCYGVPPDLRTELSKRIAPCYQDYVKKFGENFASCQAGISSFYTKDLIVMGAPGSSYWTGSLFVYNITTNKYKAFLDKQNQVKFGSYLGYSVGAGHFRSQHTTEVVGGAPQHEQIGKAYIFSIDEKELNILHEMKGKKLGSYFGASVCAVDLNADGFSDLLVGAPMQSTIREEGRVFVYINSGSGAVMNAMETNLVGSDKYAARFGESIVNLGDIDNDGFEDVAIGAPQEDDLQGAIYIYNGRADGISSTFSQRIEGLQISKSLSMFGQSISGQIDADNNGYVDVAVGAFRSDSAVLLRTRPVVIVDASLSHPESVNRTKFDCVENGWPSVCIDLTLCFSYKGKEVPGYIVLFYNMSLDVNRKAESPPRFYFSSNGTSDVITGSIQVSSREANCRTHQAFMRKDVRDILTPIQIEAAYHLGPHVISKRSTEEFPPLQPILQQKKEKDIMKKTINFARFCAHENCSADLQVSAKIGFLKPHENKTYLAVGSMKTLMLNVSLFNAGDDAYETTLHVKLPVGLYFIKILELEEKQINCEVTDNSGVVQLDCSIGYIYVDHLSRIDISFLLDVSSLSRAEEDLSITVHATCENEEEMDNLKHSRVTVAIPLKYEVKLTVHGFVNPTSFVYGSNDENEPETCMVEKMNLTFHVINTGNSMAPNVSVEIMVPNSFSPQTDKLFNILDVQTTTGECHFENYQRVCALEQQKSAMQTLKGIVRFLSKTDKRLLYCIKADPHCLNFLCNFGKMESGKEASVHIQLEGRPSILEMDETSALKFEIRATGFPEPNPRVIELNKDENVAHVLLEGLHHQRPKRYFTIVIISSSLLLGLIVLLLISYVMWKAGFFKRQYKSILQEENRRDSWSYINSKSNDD
T1 sequence (P05556 21-798): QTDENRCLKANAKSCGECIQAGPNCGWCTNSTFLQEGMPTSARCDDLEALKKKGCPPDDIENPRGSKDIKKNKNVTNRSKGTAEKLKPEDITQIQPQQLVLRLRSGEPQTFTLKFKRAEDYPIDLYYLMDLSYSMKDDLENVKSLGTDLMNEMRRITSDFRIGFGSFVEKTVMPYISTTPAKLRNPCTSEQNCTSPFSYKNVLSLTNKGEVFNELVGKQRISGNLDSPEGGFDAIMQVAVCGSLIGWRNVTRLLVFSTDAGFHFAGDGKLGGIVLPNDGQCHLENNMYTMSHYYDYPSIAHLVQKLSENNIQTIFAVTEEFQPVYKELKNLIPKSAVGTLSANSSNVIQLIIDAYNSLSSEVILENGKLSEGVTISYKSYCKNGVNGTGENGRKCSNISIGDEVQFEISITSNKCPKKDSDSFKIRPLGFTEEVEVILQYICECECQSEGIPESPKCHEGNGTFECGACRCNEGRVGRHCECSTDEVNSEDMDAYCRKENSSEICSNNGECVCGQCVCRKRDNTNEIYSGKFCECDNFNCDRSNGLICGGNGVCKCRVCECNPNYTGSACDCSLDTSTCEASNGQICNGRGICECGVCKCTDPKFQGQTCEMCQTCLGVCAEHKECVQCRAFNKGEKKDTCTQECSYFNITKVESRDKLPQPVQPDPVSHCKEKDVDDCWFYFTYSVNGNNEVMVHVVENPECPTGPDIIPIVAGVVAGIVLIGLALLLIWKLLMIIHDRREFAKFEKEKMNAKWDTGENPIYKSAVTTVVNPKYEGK

This assay concerns the target T1, hα4 and β1 integrins (VLA-4) (Homo sapiens, UniProt P05556+P13612).
T1 construct: expressed in transfected cells; host or cells: CHO cells
In words: In vitro evaluation: inhibition of binding of CHO cells expressing hα4 and β1 integrins to Eu3+-hVCAM-1 D1D7-IgG. The note with it: ligand Eu3+-hVCAM-1 D1D7-IgG 2 nM, Ki calculated from IC50. The protocol:
CHO cells which were forced to be expressed by transduction of hα4 and β1 integrins are seeded (3×10^4 cells/100 μl/well) on a Costar 3599 plate, and cultured for 2 days. A medium is washed with a buffer A* two times, and Eu^3+-hVCAM-1 D1D7-IgG which was diluted with an assay buffer A** to 2 nM is added at 50 μl/well. A test substance which was diluted with 2% DMSO-assay buffer (in the presence or the absence of 6% human serum albumin) is added at 50 μl/well (A solution which was separately diluted is added to a well in which Scatchard analysis is performed), this is stirred with a plate mixer for 5 minutes, and allowed to stand at room temperature for 1 hour. Thereafter, this is washed with a buffer A four times, a potentiating reagent (manufactured by DELFIA) is added at 100 μl/well, this is shaken for 5 minutes using a plate mixer, and a fluorescence intensity is measured with a time-resolved fluorometer (DELFIA Wallac). IC50 (concentration at which binding of CHO cell and Eu^3+-hVCAM-1 D1D7-IgG is inhibited by 50%) of a test substance is obtained from an integration rate obtained from a calculation equation: [(FT−FNS)−(FI−FNS)]/[(FT−FNS)]×100, wherein FT indicates a fluorescence intensity of a well not containing a test substance, FNS indicates a fluorescence intensity of a well not containing a test substance and hVCAM-1 D1D7-IgG, and FI indicates a fluorescence intensity containing a test substance. A Kd value showing strength of binding and Bmax (maximum binding amount) were presumed in a range of 0.06 to 20 nM according to the Scachard analysis method. [formula]
A Ki value was calculated according to the above equation ([L] is ligand concentration)
[* buffer A: 25 mM HEPES (pH 7.5), 150 mM NaCl, 1 mM Ca^2+, 1 mM Mg^2+, 4 mM Mn^2+; ** assay buffer: 25 mM HEPES (pH 7.5), 150 mM NaCl, 1 mM Ca^2+, 1 mM Mg^2+, 4 mM Mn^2+, 0.1% BSA, 20 μM DTPA, with/without 6% ALBUMIN, HUMAN SERUM (C/NA-1653, SIGMA)]
Broadly, the Ki is the dissociation constant of the complex between target and ligand, obtained from inhibition or displacement. For `Cn1cc(C(=O)Nc2cc(F)c(CC(=O)N3[C@H](c4ncc(CCC(=O)O)s4)C[C@@H]4CCCC[C@@H]43)cc2Cl)c2ccccc21` [Example 59, 3-[2-[1-[5-Chloro-2-fluoro-4-(1-methyl-3-indolylcarbonyl)aminophenylacetyl]-(2S)-octahydroindolyl]-5-thiazolyl]propionic acid], the Ki was 17 nM. Turning to `O=C(O)CCc1cnc([C@@H]2C[C@@H]3CCCC[C@@H]3N2C(=O)Cc2cc(Cl)c(NC(=O)c3csc4ccccc34)cc2F)s1` [Example 61, 3-[2-[1-[4-[(3-Benzo[b]thienylcarbonyl)amino]-5-chloro-2-fluorophenylacetyl]-(2S)-octahydroindolyl]-5-thiazolyl]propionic acid], the Ki is 6 nM.

On to `Cc1ccc(F)cc1Nc1nc2ccc(CC(=O)N3[C@H](c4ncc(CCC(=O)O)s4)C[C@@H]4CCCC[C@@H]43)c(F)c2o1` [Example 62, 3-[2-[1-[7-Fluoro-2-(5-fluoro-2-methylphenyl)amino-6-benzoxazolylacetyl]-(2S)-octahydroindolyl]-5-thiazolyl]propionic acid], for which the Ki is 2.3 nM. Next, `CCO[C@H]1CCN(C(=O)Cc2cc(Cl)c(NC(=O)c3cn(C)c4ccccc34)cc2F)[C@@H]1c1ncc(CCC(=O)O)s1` [Example 91, 3-[2-[1-[[5-Chloro-2-fluoro-4-(1-methyl-3-indolylcarbonylamino)phenyl]acetyl]-(3S)-ethoxy-(2S)-pyrrolidinyl]-5-thiazolyl]propionic acid]: 4.1 nM; `CCO[C@H]1CCN(C(=O)Cc2cc(Cl)c(NC(=O)c3cn(C)c4ccccc34)cc2Cl)[C@@H]1c1ncc(CCC(=O)O)s1` [Example 92, 3-[2-[1-[[2,5-Dichloro-4-(1-methyl-3-indolylcarbonylamino)phenyl]acetyl]-(3S)-ethoxy-(2S)-pyrrolidinyl]-5-thiazolyl]propionic acid]: 10 nM; `CCO[C@H]1CCN(C(=O)Cc2cc(Cl)c(NC(=O)c3csc4ccccc34)cc2F)[C@@H]1c1ncc(CCC(=O)O)s1` [Example 93]: 2.9 nM. Under `CCO[C@H]1CCN(C(=O)Cc2cc(Cl)c(NC(=O)c3csc4ccccc34)cc2Cl)[C@@H]1c1ncc(CCC(=O)O)s1` [Example 94] stands 6.2 nM; under `CCO[C@H]1CCN(C(=O)Cc2cc(Cl)c(NC(=O)c3coc4ccccc34)cc2F)[C@@H]1c1ncc(CCC(=O)O)s1` [Example 95], 4.2 nM; under `CCO[C@H]1CCN(C(=O)Cc2cc(Cl)c(NC(=O)c3coc4ccccc34)cc2Cl)[C@@H]1c1ncc(CCC(=O)O)s1` [Example 96], 6.4 nM. Next, `CCO[C@H]1CCN(C(=O)Cc2cc(Cl)c(NC(=O)c3cn(C)c4ccccc34)cc2F)[C@@H]1c1ncc(CCC(=O)O)o1` [Example 97, 3-[2-[1-[[5-Chloro-2-fluoro-4-(1-methyl-3-indolylcarbonylamino)phenyl]acetyl]-(3S)-ethoxy-(2S)-pyrrolidinyl]-5-oxazolyl]propionic acid]: 9.2 nM; `CCO[C@H]1CCN(C(=O)Cc2cc(Cl)c(NC(=O)c3cn(C)c4ccccc34)cc2Cl)[C@@H]1c1ncc(CCC(=O)O)o1` [Example 98, 3-[2-[1-[[2,5-Dichloro-4-(1-methyl-3-indolylcarbonylamino)phenyl]acetyl]-(3S)-ethoxy-(2S)-pyrrolidinyl]-5-oxazolyl]propionic acid]: 11 nM. Regarding `CCO[C@H]1CCN(C(=O)Cc2cc(Cl)c(NC(=O)c3csc4ccccc34)cc2Cl)[C@@H]1c1ncc(CCC(=O)O)o1` [Example 100], the Ki was 7.7 nM. Under `CCO[C@H]1CCN(C(=O)Cc2cc(Cl)c(NC(=O)c3coc4ccccc34)cc2F)[C@@H]1c1ncc(CCC(=O)O)o1` [Example 101] stands 9.8 nM. On to `CCO[C@H]1CCN(C(=O)Cc2cc(Cl)c(NC(=O)c3coc4ccccc34)cc2Cl)[C@@H]1c1ncc(CCC(=O)O)o1` [Example 102], for which the Ki was 17 nM. For the compound `CCO[C@H]1CCN(C(=O)Cc2ccc3nc(Nc4cc(F)ccc4C)oc3c2F)[C@@H]1c1ncc(CCC(=O)O)o1` [Example 103, 3-[2-[1-[[7-Fluoro-2-(5-fluoro-2-methylphenyl)amino-6-benzoxazolyl]acetyl]-(3S)-ethoxy-(2S)-pyrrolidinyl]-5-oxazolyl]propionic acid], the Ki is 2.6 nM. Turning to `CCO[C@H]1CCN(C(=O)Cc2ccc3nc(Nc4ccccc4C)oc3c2)[C@@H]1c1ncc(CCC(=O)O)o1` [Example 104, 3-[2-[1-[[2-(2-Methylphenyl)amino-6-benzoxazolyl]acetyl]-(3S)-ethoxy-(2S)-pyrrolidinyl]-5-oxazolyl]propionic acid], the Ki was 4.5 nM. Next, `CCO[C@H]1CCN(C(=O)Cc2ccc3nc(Nc4cc(F)ccc4OC)oc3c2F)[C@@H]1c1ncc(CCC(=O)O)o1` [Example 105, 3-[2-[1-[[7-Fluoro-2-(5-fluoro-2-methoxyphenyl)amino-6-benzoxazolyl]acetyl]-(3S)-ethoxy-(2S)-pyrrolidinyl]-5-oxazolyl]propionic acid]: 11 nM. Under `CCO[C@H]1CCN(C(=O)Cc2ccc3nc(Nc4ccccc4OC)oc3c2)[C@@H]1c1ncc(CCC(=O)O)o1` [Example 106, 3-[2-[1-[[2-(2-Methoxyphenyl)amino-6-benzoxazolyl]acetyl]-(3S)-ethoxy-(2S)-pyrrolidinyl]-5-oxazolyl]propionic acid] stands 21 nM. Under `CO[C@H]1C[C@@H](c2ncc(CCC(=O)O)s2)N(C(=O)Cc2ccc(Nc3nc4c(Cl)cccc4s3)c(Cl)c2)C1` [Example 114, 3-[2-[1-[4-(4-Chloro-2-benzothiazolyl)amino-3-chlorophenyl]acetyl-(4S)-methoxy-(2S)-pyrrolidinyl]-5-thiazolyl]propionic acid] stands 6.9 nM.

In the case of `CCO[C@H]1CCN(C(=O)Cc2cc(Cl)c(Nc3nc4ccccc4s3)cc2Cl)[C@@H]1c1ncc(CCC(=O)O)s1` [Example 115, 3-[2-[1-[4-(2-Benzothiazolyl)amino-2,5-dichlorophenyl]acetyl-(3S)-ethoxy-(2S)-pyrrolidinyl]-5-thiazolyl]propionic acid], the Ki is 8.4 nM. Regarding `O=C(O)CCc1cnc([C@@H]2[C@@H](O)CCN2C(=O)Cc2ccc(Nc3nc4ccccc4o3)c(Cl)c2)s1` [Example 116, 3-[2-[1-[4-(2-Benzoxazolyl)amino-3-chlorophenyl]acetyl-(3S)-hydroxy-(2S)-pyrrolidinyl]-5-thiazolyl]propionic acid], the Ki was 40 nM. Next, `O=C(O)CCc1cnc([C@@H]2[C@@H](O)CCN2C(=O)Cc2cc(Cl)c(Nc3nc4ccccc4o3)cc2F)s1` [Example 117, 3-[2-[1-[4-(2-Benzoxazolyl)amino-5-chloro-2-fluorophenyl]acetyl-(3S)-hydroxy-(2S)-pyrrolidinyl]-5-thiazolyl]propionic acid]: 35 nM; `O=C(O)CCc1cnc([C@@H]2[C@@H](O)CCN2C(=O)Cc2cc(Cl)c(Nc3nc4ccccc4o3)cc2Cl)s1` [Example 118, 3-[2-[1-[4-(2-Benzoxazolyl)amino-2,5-dichlorophenyl]acetyl-(3S)-hydroxy-(2S)-pyrrolidinyl]-5-thiazolyl]propionic acid]: 36 nM. Under `O=C(O)CCc1cnc([C@@H]2[C@@H](O)CCN2C(=O)Cc2cc(Cl)c(NC(=O)c3csc4ccccc34)cc2F)s1` [Example 122] stands 1.6 nM. Next, `O=C(O)CCc1cnc([C@@H]2[C@@H](O)CCN2C(=O)Cc2cc(Cl)c(NC(=O)c3csc4ccccc34)cc2Cl)s1` [Example 123]: 3.5 nM; `CO[C@@H]1C[C@@H](c2ncc(CCC(=O)O)s2)N(C(=O)Cc2cc(Cl)c(Nc3nc4ccccc4o3)cc2Cl)C1` [Example 124, 3-[2-[1-[4-(2-Benzoxazolyl)amino-2,5-dichlorophenyl]acetyl-(4R)-methoxy-(2S)-pyrrolidinyl]-5-thiazolyl]propionic acid]: 76 nM.

As for `CO[C@@H]1C[C@@H](c2ncc(CCC(=O)O)s2)N(C(=O)Cc2cc(Cl)c(Nc3nc4ccccc4s3)cc2Cl)C1` [Example 125], the Ki was 11 nM.

Turning to `O=C(O)CCn1nnc([C@@H]2CCCN2C(=O)Cc2cc(Cl)c(NC(=O)c3csc4ccccc34)cc2F)n1` [Example 126, 3-[5-[1-[[4-[(3-Benzo[b]thiophenylcarbonyl)amino]-5-chloro-2-fluorophenyl]acetyl]-(2S)-pyrrolidinyl]-2H-tetrazol-2-yl]propionic acid], the inhibition constant (Ki) was 19 nM. Under `CON(C)[C@H]1C[C@@H](c2ncc(CCC(=O)O)s2)N(C(=O)Cc2cc(Cl)c(NC(=O)c3cn(C)c4ccccc34)cc2F)C1` [Example 127, 3-[2-[1-[5-Chloro-2-fluoro-4-(1-methyl-3-indolylcarbonylamino)phenylacetyl]-(4S)—N,O-dimethylhydroxylamino-(2S)-pyrrolidinyl]-5-thiazolyl]propionic acid] stands 4.5 nM.
